Some results are limits rather than exact numbers.

One may read the melting point as the temperature, or range, at which the solid turns liquid. Turning to `NC(=O)c1ccc(Cl)c([N+](=O)[O-])c1`, the melting point worked out at 152 °C.

Regarding `OCc1ccc2ccccc2c1`, the melting point stood at 81.3 °C.

`O=C(O)c1ccnc(C(=O)O)c1` gave a melting point of 249 °C.

Consider `O=c1oc(=O)n(Cc2ccccc2)c2ccccc12`, for which the melting point fell in the range of 136 to 139 °C.

`CCOCCOCCOCCO` displayed a melting point of -18.7 °C.

`CCCCCCCCCCCCCCCC(=O)OCCO` had a melting point of 51 °C.

In the case of `CC1=C2C3OC(=O)C(C)C3C(O)CC2(C)C=CC1=O` (stereo unspecified), the melting point came out at 203 °C.

Turning to `O=Cc1ccc(Oc2ccccn2)cc1`, the melting point lay within 45 to 46 °C.

As for `COc1ccc(CC2c3cc(OC)c(OC)cc3CCN2C)cc1OC` (stereo unspecified), the melting point is 89 °C.

The compound `Nc1ccc(CN2CCCC2)cc1` gave a melting point of 46 to 48 °C.

Compound `O=C(Cl)c1ccc(Oc2ccccn2)cc1` yielded a melting point of 80 to 81 °C.

Regarding `Brc1cc(Br)c(Oc2c(Br)cc(Br)c(Br)c2Br)cc1Br`, the melting point is 171 to 173 °C.

Consider `O=C(c1ccccc1)c1cccc(O)c1`, for which the melting point was 117 to 119 °C.

Compound `O=C(O)c1cnc2n(c1=O)CCS2` displayed a melting point of 237 to 238 °C.

`CCN(CC)c1ccc2nc3c4ccccc4c(=O)cc-3oc2c1`: the melting point was 203 to 205 °C.

`CC1=C(C=NO)C(=O)C(C(C)C)C=C1` (stereo unspecified) gave a melting point of 146 °C.

As to `OCC1OC(n2cnc3c(NCc4ccco4)ncnc32)C(O)C1O` (stereo unspecified), the melting point lay in the range of 152 to 154 °C.

Regarding `O=C(O)C[C@H](NC(=O)OCC1c2ccccc2-c2ccccc21)c1cccc([N+](=O)[O-])c1`, the melting point is 140 °C.

`O=C(C1=NOC2C(=O)N(c3ccc(Br)cc3)C(=O)C12)c1ccc(Cl)cc1` (stereo unspecified) yielded a melting point of 184 °C.

Compound `Cc1cc(O)no1` came in with a melting point of 86.5 °C.

Compound `CC12CCC(C(OC(=O)c3ccc([N+](=O)[O-])cc3)=CC1=O)C2(C)C` (stereo unspecified) displayed a melting point of 121 °C.

Take `O=C(CBr)c1ccc2c(c1)OCO2`: the melting point fell in the range of 91 to 93 °C.

On to `O=C1C(=C2C=Cc3ccccc3N2)C(=O)c2c1cccc2[N+](=O)[O-]`, for which the melting point worked out at 360 °C.

`COC(=O)c1cc2cc3c(cc2cc1C(=O)OC)CC3` had a melting point of 124 °C.

On to `Brc1cccc(Oc2ccccc2)c1`, for which the melting point was less than 20 °C.

In the case of `O=C(O)c1cc([N+](=O)[O-])cc([N+](=O)[O-])c1Cl`, the melting point is 199 °C.

In turn, `COC(=O)c1ccc(-c2nc(C)no2)cc1` yielded a melting point of 160 to 163 °C.

With `O=C(O)CCc1ccc(F)cc1`, the melting point amounted to 90 °C.

For the compound `Cc1ccccc1NC(=O)c1ccccc1`, the melting point is 146 °C.

Regarding `OC(c1ccc(F)cc1)(c1cncnc1)c1ccccc1Cl` (stereo unspecified), the melting point amounted to 126 °C.

`O=C(Cc1ccc(/N=C/c2ccccc2)cc1)c1ccc(/N=C/c2ccccc2)cc1` gave a melting point of 181 °C.

The compound `Nc1c(Cl)cccc1C(=O)O` had a melting point of 190 °C.

As for `C=CCc1cc(C(C)=O)ccc1O`, the melting point lay within 115 to 118 °C.

Consider `C#CCCCCCCCCCCCCCC`, for which the melting point came out at 15 °C.

Turning to `O=Cc1ccccc1N1CCN(c2ccc(C(F)(F)F)cn2)CC1`, the melting point lay in the range of 106 to 107 °C.

In the case of `N#Cc1c(O)ccc([N+](=O)[O-])c1O`, the melting point was in the range of 239 to 240 °C.

As to `Clc1cc(Cl)c2ccccc2c1`, the melting point is 62.3 °C.

The compound `COC(=O)[C@@H]1[C@H](c2ccccc2)C(C#N)=C(C(SC)SC)[C@@]1(O)c1ccccc1` showed a melting point of 164 to 165 °C.

Regarding `CC(C)OC(=O)[C@H](C)O`, the melting point came to 1 °C.

Consider `c1ccc(C2=NN(c3ccccc3)CN2c2ccccc2)cc1`, for which the melting point is 150 °C.

`FCCl`: the melting point was -133 °C.

For `O=S(=O)(CCCl)c1ccc(F)cc1`, the melting point was 69 °C.

As to `CC(C)(C)OC(=O)NCc1ccsc1Br`, the melting point fell in the range of 71 to 72 °C.

In turn, `O=C(Cl)c1cc2ccccc2o1` returned a melting point of 54 to 55 °C.

For the compound `NNc1ccccn1`, the melting point is 46.6 °C.

As to `Cc1cccc(C(C)(C)C)c1N=C=O`, the melting point came out at 37 °C.

`CC(C)(C)[Si](Cl)(Cl)Cl`: the melting point was 98 °C.

The compound `O=[N+]([O-])c1ccc2c(c1)oc1ccccc12` displayed a melting point of 182 °C.

In the case of `NNC(=S)NCCN1CCCCC1`, the melting point was in the range of 121 to 123 °C.

On to `CCN(CCO)CCCC(C)Nc1ccnc2cc(Cl)ccc12` (stereo unspecified), for which the melting point amounted to 90 °C.

In turn, `CC/C=C/CCCC` came in with a melting point of -110 °C.

Compound `O=C1C(=Cc2ccc(Cl)cc2)SC(=S)N1CNc1ccc([N+](=O)[O-])cc1` had a melting point of 216 to 217 °C.

Compound `CCc1cc2ccccc2ccc1=O` gave a melting point of 49 °C.

As for `Cc1ccc(C)c(CNC2=CC(=O)c3ccccc3C2=O)c1`, the melting point is 164 °C.

`COc1nc(N)nc(SC)n1` had a melting point of 200 to 202 °C.

For `O=[N+]([O-])c1cnc(Br)s1`, the melting point was found to be 88 °C.

In turn, `O=C(O)CCS` showed a melting point of 18 °C.

As for `CSc1nc(N)c(C(C)=O)s1`, the melting point fell in the range of 159 to 160 °C.

For the compound `Nc1ccc(-c2ccc(N)cc2Cl)c(Cl)c1`, the melting point is 165 °C.

Compound `COC(=O)c1ccc(CBr)cc1` had a melting point of 56 °C.

`COC(=O)C(Cc1ccccc1)NC(=O)C(N)CC(=O)O` (stereo unspecified) returned a melting point of 246 °C.

Compound `Cc1nc(-c2ccccc2)sc1C(=O)Cl` showed a melting point of 122 to 124 °C.

Compound `O=C(Cl)c1ccc(-c2nccs2)cc1` returned a melting point of 122 to 123 °C.

`CC(N)(Cc1ccc(O)cc1)C(=O)O` (stereo unspecified) returned a melting point of 312 °C.

Turning to `CC(=O)c1ccc(C)c(C)c1`, the melting point was -3 °C.

As for `CCCCCCCCCCCCCCCCI`, the melting point came to 22 °C.

`NNc1ncnc2sc3c(c12)CCCC3` had a melting point of 178 to 179 °C.

Turning to `Cn1cc(CCC(=O)O)c(=O)n(C)c1=O`, the melting point was 225 °C.

On to `COc1ccc(C=CC(=O)c2ccc(O)cc2)cc1`, for which the melting point is 188 °C.

`O=C(O)c1cc(O)c(Br)c(O)c1` yielded a melting point of 270 °C.

`CC(=CC(=O)O)C1CCCCC1`: the melting point turned out to be 85.5 °C.

`COP(=S)(OC)Oc1cc(Cl)c(I)cc1Cl` had a melting point of 76 °C.

Compound `COC(=O)C1(C(=O)OC)Cc2ccc(OC)cc2C(=O)O1` gave a melting point of 142 °C.

`O=Cc1cc2cc(Br)ccc2o1`: the melting point was in the range of 129 to 130 °C.

Turning to `O=[N+]([O-])c1ccc2c(O)c(-c3ccc(-c4[nH]c5cc([N+](=O)[O-])ccc5c4O)cc3)[nH]c2c1`, the melting point worked out at 360 °C.

In the case of `CC(N)CC(=O)O` (stereo unspecified), the melting point amounted to 193 °C.

`CO/C(C)=C(\C#N)c1ccccc1[N+](=O)[O-]` registered a melting point of 66 to 69 °C.

As to `CCCCCCCC(=O)OCCCCCC`, the melting point was -30.6 °C.

`O=CC(C=O)c1ccccc1[N+](=O)[O-]`: the melting point fell in the range of 118 to 123 °C.

`CC(=O)Nc1ccc([N+](=O)[O-])c(F)c1` registered a melting point of 176 °C.

The compound `O=C1OC(=O)c2c(Cl)cccc21` came in with a melting point of 123 to 126 °C.

The values above are taken from a melting point compilation (Tetko et al.).
